Laboratory results from ChEMBL document CHEMBL3046449, “Selective Herbicidal Activities of Ethyl 5-(4, 6-Dimethoxypyrimidin-2-ylcarbamoylsulfamoyl)-1-methylpyrazole-4-carboxylate and Its Related Compounds” (J Pestic Sci, 1990).

Experiments:
[1] = test system: Schoenoplectiella juncoides; assay: Herbicidal activity against Schoenoplectiella juncoides assessed as growth inhibition in paddy condition under greenhouse at 5 g/ha measured after 18 days by preemergence activity assay; type: functional; settings: pre-emergence, 432 h, read-out: GI
Echinochloa crus-galli [2] = assay: Herbicidal activity against Echinochloa crus-galli (barnyard grass) assessed as growth inhibition in paddy condition under greenhouse at 5 g/ha measured after 18 days by preemergence activity assay; type: functional; settings: pre-emergence, 432 h, read-out: GI
Rotala indica = assay: Herbicidal activity against Rotala indica assessed as growth inhibition in paddy condition under greenhouse at 5 g/ha measured after 18 days by preemergence activity assay; type: functional; settings: pre-emergence, 432 h, read-out: GI
Pontederia vaginalis [3] = assay: Herbicidal activity against Monochoria vaginalis assessed as growth inhibition in paddy condition under greenhouse at 5 g/ha measured after 18 days by preemergence activity assay; type: functional; settings: pre-emergence, 432 h, read-out: GI
[4] = Phytotoxicity against Oryza sativa (rice) assessed as growth inhibition under greenhouse at 5 g/ha measured after 18 days by preemergence activity assay; type: organism-based; settings: in vivo, read-out: GI
Pontederia vaginalis [5] = assay: Herbicidal activity against Monochoria vaginalis assessed as weed control in transplanted rice field at 1500 g/ha treated after 7 days transplanting; type: functional
Sagittaria pygmaea [6] = assay: Herbicidal activity against Sagittaria pygmaea assessed as weed control in transplanted rice field at 1500 g/ha treated after 3 days transplanting; type: functional
Oryza sativa [7] = assay: Effect on Oryza sativa (rice) plant growth in transplanted Oryza sativa field assessed as number of tillers at 1500 g/ha treated after 7 days transplanting; type: organism-based; settings: in vivo, other, 168 h
Echinochloa crus-galli [8] = assay: Herbicidal activity against Echinochloa crus-galli (barnyard grass) assessed as weed control in transplanted rice field at 1500 g/ha treated after 7 days transplanting; type: functional
Sagittaria pygmaea [9] = assay: Herbicidal activity against Sagittaria pygmaea assessed as weed control in transplanted rice field at 1500 g/ha treated after 7 days transplanting; type: functional
unidentified [10] = assay: Herbicidal activity against broadleaf weed assessed as weed control in transplanted rice field at 1500 g/ha treated after 3 days transplanting; type: functional
Oryza sativa [11] = assay: Effect on Oryza sativa (rice) plant growth in transplanted Oryza sativa field assessed as number of tillers at 1500 g/ha treated after 3 days transplanting; type: organism-based; settings: in vivo, other, 72 h
[12] = test system: Schoenoplectiella juncoides; assay: Herbicidal activity against Schoenoplectiella juncoides assessed as weed control in transplanted rice field at 1500 g/ha treated after 7 days transplanting; type: functional
Oryza sativa [13] = assay: Effect on Oryza sativa (rice) plant growth in transplanted Oryza sativa field assessed as plant height at 1500 g/ha treated after 7 days transplanting; type: organism-based; settings: in vivo, other, 168 h
Oryza sativa [14] = assay: Effect on Oryza sativa (rice) plant growth in transplanted Oryza sativa field assessed as plant height at 1500 g/ha treated after 3 days transplanting; type: organism-based; settings: in vivo, other, 72 h
Cyperus serotinus [15] = assay: Herbicidal activity against Cyperus serotinus assessed as weed control in transplanted rice field at 1500 g/ha treated after 7 days transplanting; type: functional
unidentified [16] = assay: Herbicidal activity against broadleaf weed assessed as weed control in transplanted rice field at 1500 g/ha treated after 7 days transplanting; type: functional
Cyperus serotinus [17] = assay: Herbicidal activity against Cyperus serotinus assessed as weed control in transplanted rice field at 1500 g/ha treated after 3 days transplanting; type: functional
Pontederia vaginalis [18] = assay: Herbicidal activity against Monochoria vaginalis assessed as weed control in transplanted rice field at 1500 g/ha treated after 3 days transplanting; type: functional
Echinochloa crus-galli [19] = assay: Herbicidal activity against Echinochloa crus-galli (barnyard grass) assessed as weed control in transplanted rice field at 1500 g/ha treated after 3 days transplanting; type: functional
[20] = test system: Schoenoplectiella juncoides; assay: Herbicidal activity against Schoenoplectiella juncoides assessed as weed control in transplanted rice field at 1500 g/ha treated after 3 days transplanting; type: functional

Row | Structure (SMILES) | inhibition of growth at 5 g/ha [1] | inhibition of growth at 5 g/ha (Echinochloa crus-galli [2]) | inhibition of growth at 5 g/ha (Rotala indica) | inhibition of growth at 5 g/ha (Pontederia vaginalis [3]) | inhibition at 432 h [4] | other results
1 | CCOC(=O)c1c(CC)nn(C)c1S(=O)(=O)NC(=O)Nc1nc(OC)cc(OC)n1 | 40% | 20% | > 90% | 70% | < 5% | 
2 | CCOC(=O)c1c(Cl)nn(C)c1S(=O)(=O)NC(=O)Nc1nc(OC)cc(OC)n1 | 70% | 20% | > 90% | > 90% | < 5% | 
3 | CCOC(=O)c1c(C(F)(F)F)nn(C)c1S(=O)(=O)NC(=O)Nc1nc(OC)cc(OC)n1 | < 5% | < 5% | 20% | < 5% | < 5% | 
4 | CCOC(=O)c1c([N+](=O)[O-])nn(C)c1S(=O)(=O)NC(=O)Nc1nc(OC)cc(OC)n1 | 5% | < 5% | 70% | 20% | 5% | 
5 | CCOC(=O)c1c(OC)nn(C)c1S(=O)(=O)NC(=O)Nc1nc(OC)cc(OC)n1 | 70% | 40% | > 90% | > 90% | < 5% | 
6 | CCOC(=O)c1nn(C)c(S(=O)(=O)NC(=O)Nc2nc(OC)cc(OC)n2)c1C(=O)OCC | < 5% | < 5% | < 5% | < 5% | < 5% | 
7 | CCCOC(=O)c1cnn(C)c1S(=O)(=O)NC(=O)Nc1nc(OC)cc(OC)n1 | 70% | < 5% | > 90% | > 90% | < 5% | 
8 | CCCCOC(=O)c1cnn(C)c1S(=O)(=O)NC(=O)Nc1nc(OC)cc(OC)n1 | < 5% | < 5% | < 5% | < 5% | < 5% | 
9 | COc1cc(OC)nc(NC(=O)NS(=O)(=O)c2c(C(=O)N(C)C)cnn2C)n1 | < 5% | < 5% | < 5% | < 5% | < 5% | 
10 | COc1cc(OC)nc(NC(=O)NS(=O)(=O)c2c(S(=O)(=O)N(C)C)cnn2C)n1 | > 90% | 40% | > 90% | 70% | > 90% | 
11 | COc1cc(OC)nc(NC(=O)NS(=O)(=O)c2c(C#N)cnn2C)n1 | < 5% | < 5% | < 5% | < 5% | < 5% | 
12 | COc1cc(OC)nc(NC(=O)NS(=O)(=O)c2c([N+](=O)[O-])cnn2C)n1 | < 5% | < 5% | < 5% | < 5% | < 5% | 
13 | CCC(=O)c1cnn(C)c1S(=O)(=O)NC(=O)Nc1nc(OC)cc(OC)n1 | 20% | 5% | 40% | 40% | < 5% | 
14 | CCOC(=O)c1cn[nH]c1S(=O)(=O)NC(=O)Nc1nc(OC)cc(OC)n1 | 70% | 5% | 70% | 70% | 5% | 
15 | CCOC(=O)c1cnn(CC)c1S(=O)(=O)NC(=O)Nc1nc(OC)cc(OC)n1 | 70% | 5% | > 90% | > 90% | 5% | 
16 | CCCCn1ncc(C(=O)OCC)c1S(=O)(=O)NC(=O)Nc1nc(OC)cc(OC)n1 | < 5% | < 5% | < 5% | < 5% | < 5% | 
17 | CCOC(=O)c1cnn(-c2ccccc2)c1S(=O)(=O)NC(=O)Nc1nc(OC)cc(OC)n1 | 20% | < 5% | 70% | 40% | < 5% | 
18 | CCOC(=O)c1cnn(C)c1S(=O)(=O)NC(=O)Nc1nc(C)cc(C)n1 | < 5% | < 5% | 40% | < 5% | 5% | 
19 | CCOC(=O)c1cnn(C)c1S(=O)(=O)NC(=O)Nc1nc(C)cc(OC)n1 | 70% | 5% | > 90% | 70% | < 5% | 
20 | CCOC(=O)c1cnn(C)c1S(=O)(=O)NC(=O)Nc1nc(OC)nc(OC)n1 | < 5% | < 5% | < 5% | < 5% | 5% | 
21 | COc1cc(OC)nc(NC(=O)NS(=O)(=O)c2c(C)cnn2C)n1 | 20% | 20% | 70% | 40% | < 5% | 
22 | COc1cc(OC)nc(NC(=O)NS(=O)(=O)c2c(Br)cnn2C)n1 | 40% | < 5% | 40% | 70% | < 5% | 
23 | COc1cc(OC)nc(NC(=O)NS(=O)(=O)c2c(C(=O)O)cnn2C)n1 | < 5% | < 5% | < 5% | < 5% | < 5% | 
24 | COC(=O)c1cnn(C)c1S(=O)(=O)NC(=O)Nc1nc(OC)cc(OC)n1 | 70% | 40% | > 90% | > 90% | < 5% | 
25 | CCOC(=O)c1c(C)nn(C)c1S(=O)(=O)NC(=O)Nc1nc(OC)cc(OC)n1 | > 90% | 70% | > 90% | > 90% | < 5% | 
26 | CCCCOCN(C(=O)CCl)c1c(CC)cccc1CC [BUTACHLOR] |  |  |  |  |  | Activity (Pontederia vaginalis [5]): 43%; Activity (Sagittaria pygmaea [6]): 27%; Activity (Oryza sativa [7]): 93%; Activity (Echinochloa crus-galli [8]): 100%; Activity (Sagittaria pygmaea [9]): 20%; Activity (unidentified [10]): 100%; Activity (Oryza sativa [11]): 99%; Activity [12]: 88%; Activity (Oryza sativa [13]): 103%; Activity (Oryza sativa [14]): 106%; Activity (Cyperus serotinus [15]): 70%; Activity (unidentified [16]): 83%; Activity (Cyperus serotinus [17]): 63%; Activity (Pontederia vaginalis [18]): 90%; Activity (Echinochloa crus-galli [19]): 98%; Activity [20]: 100%
